According to patent publication US12227495B2, “Herbicidal compounds” (SYNGENTA CROP PROTECTION AG, priority 2018, dated 2025):

Legend:
Assay type in all cases: in vivo
[1] = tested on: Echinochloa crus-galli (ECHCG); experiment: Post-emergence herbicide test, glasshouse, percentage damage; conditions: 1000 g/ha, evaluated after 13 days
In short: (§1)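 Seeds sown in pots; cultured 1 day (pre-emergence) or 8 days (post-emergence) in a controlled glasshouse; then sprayed with the active in acetone/water 50:50 plus 0.5% Tween 20 at 500 g/ha unless noted; grown on 13 days; damage assessed and banded into five classes.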

[2] = tested on: Amaranthus retoflexus (AMARE); experiment: as above; conditions: 1000 g/ha, evaluated after 13 days
In short: as §1

Solanum nigrum (SOLNI) [3] = experiment: as above; conditions: 1000 g/ha, evaluated after 13 days
In short: as §1

Lolium perenne (LOLPE) [4] = experiment: as above; conditions: 1000 g/ha, evaluated after 13 days
In short: as §1

Setaria faberi (SETFA) [5] = experiment: as above; conditions: 1000 g/ha, evaluated after 13 days
In short: as §1

[6] = tested on: Ipomoea hederacea (IPOHE); experiment: as above; conditions: 1000 g/ha, evaluated after 13 days
In short: as §1

[7] = tested on: Echinochloa crus-galli (ECHCG); experiment: Pre-emergence herbicide test, glasshouse, percentage damage; conditions: rate 1000 g/ha, evaluated after 13 days
In short: as §1

[8] = tested on: Amaranthus retoflexus (AMARE); experiment: as above; conditions: rate 1000 g/ha, evaluated after 13 days
In short: as §1

Solanum nigrum (SOLNI) [9] = experiment: as above; conditions: rate 1000 g/ha, evaluated after 13 days
In short: as §1

Lolium perenne (LOLPE) [10] = experiment: as above; conditions: rate 1000 g/ha, evaluated after 13 days
In short: as §1

Setaria faberi (SETFA) [11] = experiment: as above; conditions: rate 1000 g/ha, evaluated after 13 days
In short: as §1

[12] = tested on: Ipomoea hederacea (IPOHE); experiment: as above; conditions: rate 1000 g/ha, evaluated after 13 days
In short: as §1

Row | Structure (SMILES) | percentage damage caused to the plant, ECHCG [1] | percentage damage caused to the plant, AMARE [2] | percentage damage caused to the plant, SOLNI (Solanum nigrum (SOLNI) [3]) | percentage damage caused to the plant, LOLPE (Lolium perenne (LOLPE) [4]) | percentage damage caused to the plant, SETFA (Setaria faberi (SETFA) [5]) | percentage damage caused to the plant, IPOHE [6] | Pre-emergence Test ECHCG percentage damage (five point scale) [7] | Pre-emergence Test AMARE percentage damage (five point scale) [8] | Pre-emergence Test SOLNI percentage damage (five point scale) (Solanum nigrum (SOLNI) [9]) | Pre-emergence Test LOLPE percentage damage (five point scale) (Lolium perenne (LOLPE) [10]) | Pre-emergence Test SETFA percentage damage (five point scale) (Setaria faberi (SETFA) [11]) | Pre-emergence Test IPOHE percentage damage (five point scale) [12]
1 | FC(F)c1cc(-c2c(Cl)cccc2Oc2ccc(Cl)cn2)on1 [Compound A113] | 4 (4=61-80%) | 5 (5=81-100%) | 4 (4=61-80%) | 5 (5=81-100%) | 5 (5=81-100%) | 5 (5=81-100%) | 5 (5=81-100%) | 5 (5=81-100%) | 4 (4=61-80%) | 5 (5=81-100%) | 5 (5=81-100%) | 4 (4=61-80%)
2 | Fc1cnc(Oc2cccc(Cl)c2-c2cc(C(F)F)no2)c(F)c1 [Compound A114] | 4 (4=61-80%) | 5 (5=81-100%) | 5 (5=81-100%) | 4 (4=61-80%) | 5 (5=81-100%) | 5 (5=81-100%) | 5 (5=81-100%) | 5 (5=81-100%) | 4 (4=61-80%) | 5 (5=81-100%) | 5 (5=81-100%) | 5 (5=81-100%)
3 | N#Cc1ccc(Oc2cccc(Cl)c2-c2cc(C(F)F)no2)nc1 [Compound A115] | 4 (4=61-80%) | 5 (5=81-100%) | 5 (5=81-100%) | 4 (4=61-80%) | 5 (5=81-100%) | 5 (5=81-100%) | 5 (5=81-100%) | 5 (5=81-100%) | 4 (4=61-80%) | 5 (5=81-100%) | 5 (5=81-100%) | 5 (5=81-100%)
4 | Fc1cc(Br)cnc1Oc1cccc(Cl)c1-c1cc(C(F)F)no1 [Compound A116] | 4 (4=61-80%) | 5 (5=81-100%) | 5 (5=81-100%) | 5 (5=81-100%) | 5 (5=81-100%) | 5 (5=81-100%) | 5 (5=81-100%) | 5 (5=81-100%) | 4 (4=61-80%) | 5 (5=81-100%) | 5 (5=81-100%) | 4 (4=61-80%)
5 | Fc1cc(C(F)(F)F)cnc1Oc1cccc(Cl)c1-c1cc(C(F)F)no1 [Compound A117] | 4 (4=61-80%) | 5 (5=81-100%) | 4 (4=61-80%) | 4 (4=61-80%) | 4 (4=61-80%) | 5 (5=81-100%) | 4 (4=61-80%) | 5 (5=81-100%) | 2 (2=21-40%) | 4 (4=61-80%) | 5 (5=81-100%) | 5 (5=81-100%)
6 | N#Cc1cc(C(F)(F)F)cnc1Oc1cccc(Cl)c1-c1cc(C(F)F)no1 [Compound A118] | 5 (5=81-100%) | 5 (5=81-100%) | 5 (5=81-100%) | 5 (5=81-100%) | 5 (5=81-100%) | 5 (5=81-100%) | 5 (5=81-100%) | 5 (5=81-100%) | 4 (4=61-80%) | 5 (5=81-100%) | 5 (5=81-100%) | 4 (4=61-80%)
